Source: patent US6800612B2, “S-nitrosothiols as agents for the treatment of circulatory dysfunctions” (Lacer, S.A., priority 2000, dated 2004)
Read-outs that look alike come from different tables or passages of the source.

Columns and labels:
arterial ring = test: Tests for in vitro vasodilatation (arterial rings contracted with 1 μM Norepinephrine); format: cell-based; settings: for EC50: vasodilatation of 50% of arterial ring previously contracted with 1 μM Norepinephrine, 6 to 9 rings, read-out: CE50 (average ± SD), vasodilatation
Protocol: Tests for In Vitro Vasodilatation. The method used in the assays is substantially the same as described in the following references: Furchgot, R. F. “Methods in nitric oxide research”. Feelisch & Stamler eds. John Wiley &Sons, Chichester, England, pp 567-581. Trongvanichnam, K, et al. Jpn J. […]., et al. Eur. J. Pharmacol. 1994; 258:47-55. The compounds are tested at 5 different concentrations, at a concentration range from 0,001 y 10 mM, using from 6 to 9 arterial rings for each compound. The obtained results are compared to those from the S-nitrosoglutathione (GSNO), which is used as reference product.

platelets = test: Tests in vitro of the inhibition of the aggregation of the platelets (collagen 1 μg/mL); format: cell-based, human; settings: for IC50: aggregation obtained with sub-maximal collagen concentration (1 μg/mL), read-out: IC50 (average ± SD), inhibition of the aggregation of the platelets; for inhibiting activity on platelets aggregation compared to the reference compound (GSNO): in words
Excerpt: Tests In Vitro of the Inhibition of the Aggregation of the Platelets. The method used in the assays is substantially the same as described in following references: Loscalzo J, et al. En: Methods in nitric oxide research (Feelisch M, Stamler JS, eds.) John Wiley & Sons, Chichester, England, pp 583-591. Radomski MW, et al. Br J Pharmacol 1987;92:181-187. […], et al. Br J Pharmacol 1994;112:1071-1076. […] The obtained results are compared to those from the S-nitrosoglutathione (GSNO), which is used as reference product.

human washed platelets = test: Tests in vitro of the increase of the intra-platelet levels of GMPc; format: cell-based; settings: for GMPc intra-platelet level: human washed platelets
Excerpt: Tests In Vitro of the Increase of the Intra-platelet Levels of GMPc. […] The method used in the test is substantially the same as described in the references cited in example 8. […] The obtained results are compared to those from the GSNO (reference product) and with the basal values.

[1] = tested on: human washed platelet preparations; test: Test in vitro of the blockage of platelet aggregation inhibition by ODQ; format: cell-based; settings: for inhibition at 0.1 µM / inhibition at 0.3 µM / inhibition at 1 µM: Homo sapiens, Platelet; for inhibition at 1 µM: 1 μM compound; for blocking of the inhibiting effect by ODQ: IC50 dose of the compounds
Protocol: Test In Vitro of the Blockage of Platelet Aggregation Inhibition. The method used in the test is substantially the same as described in the references cited in example 8, completed with the reference: Moro MA, et al. Pr Nat Acad Sc USA. 1996 ;93:1480-5. The ODQ is tested in vitro to block the inhibition of platelet aggregation reached by the obtained products in human washed platelet preparations. […] The obtained results are compared to those from the GSNO (reference product) and with the values in absence of ODQ.

In the case of `CC(=O)NC(C(=O)O)C1(SN=O)CCN(C)CC1` (stereo not drawn) [Product obtained in example 2, N-acetyl-2-amino-2-[4-(4-S-nitro-somercapto-1-methylpiperidin)] Acetic Acid], the “vasodilating activity compared to the reference compound (GSNO)” value (arterial ring; in words) is reported as “highly superior to that of the reference product”, the EC50 (arterial ring) is reported as 24 ± 3 nM and the IC50 (platelets) is reported as 190 ± 20 nM.

Work on `N[C@@H](CCC(=O)N[C@@H](CSN=O)C(=O)NCC(=O)O)C(=O)O` [GSNO, S-nitrosoglutathione, reference compound] yielded an EC50 (arterial ring) of 1560 ± 550 nM, an IC50 (platelets; Homo sapiens, Platelet) of 480 ± 190 nM and a GMPc intra-platelet level (human washed platelets; 0.1 μM compound) of 1 ± 0.5 pmol/10^9 platelets. The GMPc intra-platelet level (human washed platelets; 0.3 μM compound) was 6.6 ± 0.6 pmol/10^9 platelets, the GMPc intra-platelet level (human washed platelets; 1 μM compound) was 24 ± 0.5 pmol/10^9 platelets and the GMPc intra-platelet level (human washed platelets; 3 μM compound) was 27.6 ± 6.0 pmol/10^9 platelets. It also gave an inhibition at 0.1 µM ([1]; 0.1 μM compound, ODQ 1 μM, read-out: % inhibition with ODQ) of 0%, an inhibition at 0.1 µM ([1]; 0.1 μM compound, inhibition of the maximum aggregation, read-out: % inhibition without ODQ) of 34.2 ± 25% and an inhibition at 0.3 µM ([1]; 0.3 μM compound, ODQ 1 μM, read-out: % inhibition with ODQ) of 3.3 ± 3%. For the same compound, the inhibition at 0.3 µM ([1]; 0.3 μM compound, inhibition of the maximum aggregation, read-out: % inhibition without ODQ) was 79.3 ± 17%, the inhibition at 1 µM ([1]; ODQ 1 μM, read-out: % inhibition with ODQ) was 32.6 ± 0.9% and the inhibition at 1 µM ([1]; inhibition of the maximum aggregation, read-out: % inhibition without ODQ) was 92.65 ± 0.9%. The “blocking of the inhibiting effect by ODQ” value ([1]; ODQ 1 μM, in words) was “capable of blocking the inhibiting effect”.

With “N[N-γ-L-glutamyl-2-amino-2-(4-(4-S-nitrosomercapto-1-methyl-piperidin))acetyl ] glycine [Product obtained in example 5]” the EC50 (arterial ring) was 1890 ± 820 nM, the IC50 (platelets) was 47 ± 11 nM and the “inhibiting activity on platelets aggregation compared to the reference compound (GSNO)” value (platelets) was “highly superior to that of the reference product”. It also gave a GMPc intra-platelet level (human washed platelets; 0.03 μM compound) of 1.60 ± 0.5 pmol/10^9 platelets, a GMPc intra-platelet level (human washed platelets; 0.1 μM compound) of 1.50 ± 0.4 pmol/10^9 platelets and a GMPc intra-platelet level (human washed platelets; 0.3 μM compound) of 6.50 ± 0.5 pmol/10^9 platelets. For the same compound, the GMPc intra-platelet level (human washed platelets; 1 μM compound) was 21.1 ± 0.5 pmol/10^9 platelets, the “increase of intra-platelet levels of GMPc compared to GSNO” value (human washed platelets; in words) was “in a similar manner to that of the GSNO reference” and the “levels of GMPc at concentrations close to the IC50, compared to GSNO” value (human washed platelets; values close to the IC50, in words) was “lower as that of the GSNO”. The “% inhibition with ODQ” value ([1]; 0.003 μM compound, ODQ 1 μM) was 0%, the “% inhibition without ODQ” value ([1]; 0.003 μM compound, inhibition of the maximum aggregation) was 0% and the “% inhibition with ODQ” value ([1]; 0.01 μM compound, ODQ 1 μM) was 0%. The “% inhibition without ODQ” value ([1]; 0.01 μM compound, inhibition of the maximum aggregation) was 17%, the “% inhibition with ODQ” value ([1]; 0.03 μM compound, ODQ 1 μM) was 0% and the “% inhibition without ODQ” value ([1]; 0.03 μM compound, inhibition of the maximum aggregation) was 83 ± 1.4%. For the same compound, the “% inhibition with ODQ” value ([1]; 0.1 μM compound, ODQ 1 μM) was 0%, the “% inhibition without ODQ” value ([1]; 0.1 μM compound, inhibition of the maximum aggregation) was 96% and the “% inhibition with ODQ” value ([1]; 0.3 μM compound, ODQ 1 μM) was 0%. For the same compound, the “% inhibition without ODQ” value ([1]; 0.3 μM compound, inhibition of the maximum aggregation) was 96%, the “blocking of the inhibiting effect by ODQ” value ([1]; ODQ 1 μM, in words) was “capable of blocking the inhibiting effect” and the “blocking of the inhibition of aggregation by ODQ compared to the reference product” value ([1]; ODQ 1 μM, at higher doses to that of the IC50, in words) was “better blocked”.

`CC(=O)NC(C(=O)O)C(Cc1ccccc1)(Cc1ccccc1)SN=O` (stereo not drawn) [Product obtained in example 3, N-acetyl-2-amino-3-benzyl-3-S-ni-trosomercapto-4-phenyl-butanoic Acid] was tested, and the EC50 (arterial ring) was 630 ± 210 nM and the IC50 (platelets) was 240 ± 27 nM.

With `CC(=O)NC(C(=O)O)C1(SN=O)CCOCC1` (stereo not drawn) [Product obtained in example 1, N-acetyl-2-amino-2-[4-(4-S-Nitro-somercaptotetrahydropyran) ] Acetic Acid] the EC50 (arterial ring) was 375 ± 50 nM, the IC50 (platelets) was 70 ± 20 nM and the “inhibiting activity on platelets aggregation compared to the reference compound (GSNO)” value (platelets) was “highly superior to that of the reference product”.

“N[N-γ-L-glutamyl-2-amino-2-(4-(4—S—nitrosomercapto)tetrahydropyran)) acetyl]glycine [Product obtained in example 4]” was tested, and the EC50 (arterial ring) was 1730 ± 270 nM and the IC50 (platelets) was 200 ± 120 nM.

`N[C@@H](CCC(=O)NC(C(=O)NCC(=O)O)C(Cc1ccccc1)(Cc1ccccc1)SN=O)C(=O)O` (stereo partly drawn) [Product obtained in example 6, N[N-γ-L-glutamyl-2-amino-3-benzyl-3-(S-nitrosomercapto)-4-phenylbutanoyl] glycine] showed an IC50 (platelets) of 350 ± 110 nM.
